Source: patent US20080103123A1, “New compounds” (Biovitrum, priority 2006, published 2008)
Where two headings read alike, the source gives them in different places.

Molecular target: T1, human GPR119 receptor (Homo sapiens, UniProt Q8TDV5)
T1 construct: expressed in transfected cells
T1 sequence (Q8TDV5 1-335): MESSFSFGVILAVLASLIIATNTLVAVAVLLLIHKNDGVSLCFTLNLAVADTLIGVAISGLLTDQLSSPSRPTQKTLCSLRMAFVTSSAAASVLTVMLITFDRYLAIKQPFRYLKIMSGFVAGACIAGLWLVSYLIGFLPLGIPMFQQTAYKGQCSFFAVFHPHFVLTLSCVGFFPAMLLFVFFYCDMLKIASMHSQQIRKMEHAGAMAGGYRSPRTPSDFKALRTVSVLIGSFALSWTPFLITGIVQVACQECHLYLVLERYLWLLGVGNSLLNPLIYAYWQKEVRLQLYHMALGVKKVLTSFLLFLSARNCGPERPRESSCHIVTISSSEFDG
Test: Human GPR119 Activity Assay (cAMP, HTRF)
Format: cell-based
Procedure: Human GPR119 Activity Assay
Agonists to the human GPR119 receptor were characterized by measuring human GPR119 receptor-mediated stimulation of cyclic AMP (cAMP) in HEK 293 cells expressing the human GPR119 receptor.
Briefly, cAMP content was determined using a cAMP kit based on HTRF technology (Homogeneous Time-Resolved Fluorescence, Cisbio Cat. no. 62AM2PEC). HEK293 cells stably expressing the human GPR119 receptor (HEK293-hGPR119 cells) were cultured in DMEM (Gibco # 31966-021) supplemented with 10% Bovine Calf Serum (Hyclone # SH30072.03), and, 500 μg/mL Hygromycin B (Roche Diagnostics 843555). At 80% confluency, cells were detached using Trypsine and aliquoted at a density of 5×10^6 cells/mL in freezing medium (DMEM (Gibco # 31966-021), 20% BCS (Hyclone # SH30072.03), 10% DMSO (Sigma #D2650) and stored at −135° C. On the experimental day, HEK293-hGPR119 cells were thawn and diluted to 0.4×10^6 cells/mL in assay buffer (1×HBSS (Gibco Cat. no. 14025-049), 20 mM Hepes (Gibco Cat. no. 15630-056), 0.1% BSA, pH 7.4) and incubated with test substances for 20 min at room temperature. After addition of HTRF reagents diluted in lysis buffer, the 96- or 384-well plates were incubated 1 hour, followed by measuring the fluorescence ratio at 665 nm/620 nm. Test substances was diluted in compound buffer (1×HBSS (Gibco Cat. no. 14025-049), 20 mM Hepes (Gibco Cat. no. 15630-056), 0.1% BSA, 2 mM IBMX (Sigma-Aldrich Cat. No. 17018, pH 7.4). The potency of the agonist was quantified by determine the concentration that cause 50% activation of hGPR119 evoked increase in cAMP, EC50.

[1] = stimulation of cAMP in HEK293 cells stably expressing human GPR119, 20 min at room temperature, HTRF, read-out: EC50 (μM), Agonist potency at the human GPR119

EC50 [1] [µM]	Compound	EC50 [µM]
–	CN(Cc1ccc(-c2ccc(S(C)(=O)=O)cc2)nc1)C1CCN(C(=O)OC(C)(C)C)CC1 [EXAMPLE B2, tert-Butyl 4-[methyl({6-[4-(methylsulfonyl)phenyl]pyridin-3-yl}methyl)amino]-piperidine-1-carboxylate]	0.022
0.139	CN(Cc1ccc(-c2ccc(S(C)(=O)=O)cc2)cn1)C1CCN(C(=O)OC(C)(C)C)CC1 [EXAMPLE A39, tert-Butyl 4-[methyl({5-[4-(methylsulfonyl)phenyl]pyridin-2-yl}methyl)amino]-piperidine-1-carboxylate]	–
0.11	CS(=O)(=O)c1ccc(-c2ccc(OCC3CCN(C(=O)OCc4ccccc4)CC3)nc2)cc1 [EXAMPLE A2, Benzyl 4-[({5-[4-(methylsulfonyl)phenyl]pyridin-2-yl}oxy)methyl]piperidine-1-carboxylate]	–
